Earlier results as cited in patent US20170325481A1, “METHOD OF FORMING ENCAPSULATED COMPOSITIONS WITH ENHANCED SOLUBILITY AND STABILITY” (KEMIN INDUSTRIES, INC., priority 2011, published 2017).

Conditions: multiple nanosize emulsions, 4 weeks of storage at 50° C.

- β-carotene left after storage: 32.3%
Compound: CC1=C(/C=C/C(C)=C/C=C/C(C)=C/C=C/C=C(C)/C=C/C=C(C)/C=C/C2=C(C)CCCC2(C)C)C(C)(C)CCC1 [β-carotene]
